According to ChEMBL document CHEMBL5331121, “Preferred Conformation-Guided Discovery of Potent and Orally Active HIF Prolyl Hydroxylase 2 Inhibitors for the Treatment of Anemia” (J Med Chem, 2023):
Each block holds one molecule with its values, some of them ahead of it. The source made the active and inactive calls. The rule behind the calls is not given here.

What was measured:
[1] = Metabolic stability in rat liver microsomes assessed as clearance at 1 uM preincubated for 5 mins followed by NADPH addition and measured upto 60 mins by LC-MS/MS analysis; format: ADME, Microsome; settings: time < 65 min, read-out: CLH
Egl nine homolog 1 = Egl nine homolog 1 (Homo sapiens, UniProt Q9GZT9); test: Binding affinity to […] PHD2 (181 to 426 residues) (unknown origin) by fluorescence polarization assay
Egl nine homolog 1, sequence (Q9GZT9 whole entry, the tested form may be a part): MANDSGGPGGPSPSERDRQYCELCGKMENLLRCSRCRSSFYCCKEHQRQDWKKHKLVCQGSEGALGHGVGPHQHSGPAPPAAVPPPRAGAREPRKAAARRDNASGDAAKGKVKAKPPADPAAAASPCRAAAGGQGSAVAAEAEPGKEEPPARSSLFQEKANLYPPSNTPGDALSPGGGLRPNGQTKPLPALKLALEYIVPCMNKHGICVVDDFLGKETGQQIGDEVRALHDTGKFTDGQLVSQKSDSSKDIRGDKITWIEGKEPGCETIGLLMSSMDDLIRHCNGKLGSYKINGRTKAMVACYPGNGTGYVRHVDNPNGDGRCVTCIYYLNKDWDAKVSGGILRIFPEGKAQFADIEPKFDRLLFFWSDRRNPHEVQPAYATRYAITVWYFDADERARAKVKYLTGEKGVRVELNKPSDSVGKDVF

Erythrocyte = test: Upregulation of reticulocytes in C57BL/6J mouse assessed as increase in RBC at 10 to 50 mg/kg, po administered once daily for 3 days; format: functional, organism-based; settings: dose 10-50 mg/kg, time 3.0 day
Hep 3B2 [2] = test: Cytotoxicity against human Hep3B cells incubated for 48 hrs by CCK-8 assay; format: toxicity, cell-based; settings: hep 3b2, 48 h
Hep 3B2 [3] = test: Effect on VEGFA gene expression in human Hep3B cells at 5 to 20 uM incubated for 12 hrs by RT-qPCR analysis; format: functional, cell-based; settings: dose 5-20 µM
[4] = target: Endothelial PAS domain-containing protein 1 (Homo sapiens) (UniProt Q99814); test: Induction of HIF-2alpha stabilization in human Hep3B cells at 20 to 50 uM by Western blotting analysis; format: cell-based; settings: dose 20-50 µM
Endothelial PAS domain-containing protein 1 (Homo sapiens), sequence (Q99814 whole entry, the tested form may be a part): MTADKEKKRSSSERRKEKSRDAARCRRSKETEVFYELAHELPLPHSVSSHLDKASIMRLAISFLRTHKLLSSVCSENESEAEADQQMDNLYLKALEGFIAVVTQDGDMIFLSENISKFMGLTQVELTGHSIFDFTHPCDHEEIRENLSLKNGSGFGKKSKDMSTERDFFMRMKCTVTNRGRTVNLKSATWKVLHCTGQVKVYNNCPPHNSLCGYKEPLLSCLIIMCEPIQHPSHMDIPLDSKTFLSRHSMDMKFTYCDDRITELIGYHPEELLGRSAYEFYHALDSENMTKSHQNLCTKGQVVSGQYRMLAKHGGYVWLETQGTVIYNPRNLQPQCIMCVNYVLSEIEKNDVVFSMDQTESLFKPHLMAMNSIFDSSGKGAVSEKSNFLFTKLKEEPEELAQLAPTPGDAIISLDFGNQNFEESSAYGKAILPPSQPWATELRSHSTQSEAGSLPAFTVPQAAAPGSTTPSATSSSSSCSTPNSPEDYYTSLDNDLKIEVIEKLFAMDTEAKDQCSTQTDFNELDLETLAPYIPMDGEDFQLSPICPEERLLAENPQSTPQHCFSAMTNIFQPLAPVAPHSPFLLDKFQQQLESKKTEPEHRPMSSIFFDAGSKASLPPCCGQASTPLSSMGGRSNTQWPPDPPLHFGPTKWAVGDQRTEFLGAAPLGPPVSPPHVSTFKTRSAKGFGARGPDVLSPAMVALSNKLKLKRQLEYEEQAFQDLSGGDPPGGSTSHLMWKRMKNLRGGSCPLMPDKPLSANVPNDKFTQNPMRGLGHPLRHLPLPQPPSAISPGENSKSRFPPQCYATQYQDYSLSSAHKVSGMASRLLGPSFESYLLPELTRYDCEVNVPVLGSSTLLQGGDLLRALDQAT

[5] = Upregulation of EPO mRNA level in human Hep3B cells assessed as fold increase at 20 uM incubated for 12 hrs by RT-qPCR analysis; format: functional, Hep 3B2
[6] = target: Hypoxia-inducible factor 1-alpha (Homo sapiens) (UniProt Q16665); test: Induction of HIF-1alpha stabilization in human Hep3B cells at 20 to 50 uM by Western blotting analysis; format: cell-based; settings: dose 20-50 µM
Hypoxia-inducible factor 1-alpha (Homo sapiens), sequence (Q16665 whole entry, looked up): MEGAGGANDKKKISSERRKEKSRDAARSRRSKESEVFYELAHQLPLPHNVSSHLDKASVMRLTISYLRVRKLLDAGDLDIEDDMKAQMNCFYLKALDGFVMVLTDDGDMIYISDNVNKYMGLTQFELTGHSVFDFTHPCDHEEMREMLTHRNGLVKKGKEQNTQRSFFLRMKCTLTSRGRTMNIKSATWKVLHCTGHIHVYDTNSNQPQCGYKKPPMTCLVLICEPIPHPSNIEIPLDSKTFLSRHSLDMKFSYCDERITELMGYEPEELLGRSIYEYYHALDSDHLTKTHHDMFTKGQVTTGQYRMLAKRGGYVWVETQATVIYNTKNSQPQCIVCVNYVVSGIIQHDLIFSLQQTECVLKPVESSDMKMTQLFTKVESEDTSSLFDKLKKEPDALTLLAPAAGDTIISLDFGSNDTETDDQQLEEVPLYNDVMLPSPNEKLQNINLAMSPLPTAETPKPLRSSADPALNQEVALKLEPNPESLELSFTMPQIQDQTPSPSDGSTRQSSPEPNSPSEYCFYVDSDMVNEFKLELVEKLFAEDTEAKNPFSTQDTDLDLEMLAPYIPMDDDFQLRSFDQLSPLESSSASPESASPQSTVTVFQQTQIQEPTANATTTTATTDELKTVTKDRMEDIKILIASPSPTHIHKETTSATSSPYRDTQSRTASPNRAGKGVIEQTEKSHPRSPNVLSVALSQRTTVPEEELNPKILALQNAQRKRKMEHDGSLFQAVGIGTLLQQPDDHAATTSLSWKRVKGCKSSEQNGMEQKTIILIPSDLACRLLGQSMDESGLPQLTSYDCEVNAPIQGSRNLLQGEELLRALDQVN

Mus musculus = test: Upregulation of reticulocytes in C57BL/6J mouse at 10 mg/kg, po administered once daily for 3 days; format: functional, organism-based; settings: time 3.0 day
Hep 3B2 [7] = test: Upregulation of EPO mRNA level in human Hep3B cells incubated for 12 hrs by RT-qPCR analysis; format: functional, cell-based; settings: dose 5-20 µM
[8] = Metabolic stability in rat liver microsomes assessed as half life at 1 uM preincubated for 5 mins followed by NADPH addition and measured upto 60 mins by LC-MS/MS analysis; format: ADME, Microsome; settings: time < 65 min

Structure (SMILES): O=C(O)CNC(=O)c1ncc(C2CCN(C(=O)c3ccc(F)cc3)CC2)cc1O
IC50 (Egl nine homolog 1): 67.5 nM

Structure (SMILES): COc1ccc(C(=O)N2CCC(c3cnc(C(=O)NCC(=O)O)c(O)c3)CC2)cc1
IC50 (Egl nine homolog 1): 54.1 nM

Structure (SMILES): O=C(O)CNC(=O)c1ncc(C2CCN(C(=O)c3cc(F)cc(F)c3)CC2)cc1O
IC50 (Egl nine homolog 1): 256 nM

Structure (SMILES): O=C(O)CNC(=O)c1ncc(C2CCN(C(=O)c3ccccc3Cl)CC2)cc1O
IC50 (Egl nine homolog 1): 131 nM

Structure (SMILES): Cc1nc(C(=O)NCC(=O)O)c(O)c2ccc(Oc3ccccc3)cc12
Activity (Erythrocyte): Dose-Dependent Effect | Activity [4]: Active | Activity [6]: Active | Activity (Mus musculus): Active

Structure (SMILES): O=C(O)CNC(=O)c1ncc(C2CCN(S(=O)(=O)Cc3ccc(C(F)(F)F)cc3)CC2)cc1O
microsomal CLint at 1 µM [1]: 5 µL/min/mg | IC50 (Egl nine homolog 1): 98.9 nM

Structure (SMILES): Cc1ccc(NCC(=O)N2CCC(c3cnc(C(=O)NCC(=O)O)c(O)c3)CC2)cc1
IC50 (Egl nine homolog 1): 64.5 nM

Further lines, with some results ahead:

microsomal CLint at 1 µM [1]: 5.6 µL/min/mg | IC50 (Egl nine homolog 1): 43.4 nM
Structure (SMILES): O=C(O)CNC(=O)c1ncc(C2CCN(C(=O)CNc3ccc(C(F)(F)F)cc3)CC2)cc1O

IC50 (Egl nine homolog 1): 15.6 nM
Structure (SMILES): O=C(O)CNC(=O)c1ncc(C#CCOc2ccc(Cl)cc2)cc1O [DDO-3055]

Activity [4]: Active | IC50 (Egl nine homolog 1): 24.6 nM | Activity [6]: Active
Structure (SMILES): O=C(O)CNC(=O)c1ncc(C2CCN(C(=O)c3ccc(OC(F)(F)F)cc3)CC2)cc1O
Activity (Erythrocyte): Dose-Dependent Effect | Activity (Hep 3B2 [2]): Non-Toxic | Activity (Hep 3B2 [3]): inactive | fold change (FC) [5]: 7 | Activity (Mus musculus): Active | Activity (Hep 3B2 [7]): Dose-Dependent Effect

microsomal CLint at 1 µM [1]: 3.7 µL/min/mg | IC50 (Egl nine homolog 1): 44.3 nM
Structure (SMILES): O=C(O)CNC(=O)c1ncc(C2CCN(C(=O)c3ccc(C(F)(F)F)cc3)CC2)cc1O
Activity (Mus musculus): Active

IC50 (Egl nine homolog 1): 19.6 nM
Structure (SMILES): O=C(O)CNC(=O)c1ncc(C2CCN(C(=O)CNc3ccc(Cl)c(Cl)c3)CC2)cc1O
Activity (Mus musculus): Active

IC50 (Egl nine homolog 1): 34.5 nM
Structure (SMILES): O=C(O)CNC(=O)c1ncc(C2CCN(C(=O)c3ccc(Cl)cc3)CC2)cc1O

IC50 (Egl nine homolog 1): 39.9 nM
Structure (SMILES): O=C(O)CNC(=O)c1ncc(C2CCN(C(=O)CNc3ccc(OC(F)(F)F)cc3)CC2)cc1O

microsomal CLint at 1 µM [1]: 135 µL/min/mg | IC50 (Egl nine homolog 1): 13.1 nM | half-life at 1 µM [8]: 7.35 min
Structure (SMILES): O=C(O)CNC(=O)c1ncc(C2=CCN(S(=O)(=O)Cc3ccc(C(F)(F)F)cc3)CC2)cc1O
